Broadly, the Ki is a measure of affinity in units of concentration, obtained from inhibition or displacement.

“Also recorded” adds a separate entry of the source.

The test system of one experiment is rPLA2. Nature of the experiment: rPLA2 enzyme activity assay with 2-[1-14C]AA-GPC substrate in the presence of inhibitors or divalent metal ions. It is filed as biochemical, bovine. Particulars: for inhibition of rPLA2 activity: substrate 2-[1-14C]AA-GPC, 10 min; for effect on rPLA2 activity compared with cPLA2: comparison rPLA2 versus cPLA2. The protocol: To verify the effect of known inhibitors on the activity of rPLA2, the various concentrations of inhibitors, i.e., DTT (dithiothtreitol), AACOCF3 (arachidonylfluoromethyl ketone) known as the cPLA2 inhibitor, mepacrine and methyl mercury, mercuric chloride known as the sPLA2 inhibitors were added to active pool from Mono Q column and reacted 2-[1-^14C]-AA-GPC as a substrate for 10 min. The comparative groups, cPLA2 and sPLA2, were subjected to in a same procedure.
To verify the effect of divalent metal ions on enzyme activity, to rPLA2 activity, various concentrations of divalent metal i.e., Zn^2+, Fe^2+, Cu^2+, Sr^2+, Ba^2+, Mn^2+ and Mg^2+ were added to active pool from Mono Q column and reacted 2-[1-^14C]-AA-GPC as a substrate for further 10 min. The comparative groups, cPLA2 and sPLA2, were subjected to in a same procedure.
To measure the functions of rPLA2 using inventive antibody, the supernatant obtained from above procedure was adopted to analyze the activity. PLA2 activity was measured in an assay system (100 μl) of 75 mM Tris-HCl (pH 7.5) containing […] of 2-[1-^14C]AA-GPC (110,000 cpm/4.5 nmol) mixed with 2-[1-^14C]AA-GPC, 4% glycerol, 5 mM CaCl2 and 0.2 % BSA.
Prepared rPLA2 and cPLA2 and each inhibitor dissolved in 5 μl of DMSO solution was added and reacted for 10 min at 37° C. maintaining the temperature. 2-[1-^14C]AA-PC as a substrate was added and reacted for 10 min at 37° C. maintaining the temperature.
To verify the mechanism of inhibition, Dixon plot was constructed (FIG. 31).

Another experiment has as its system human RBCs. The experiment is described as follows: [3H]AA release from labeled human RBCs. The conditions noted are these: for inhibition of AA release by A23187 in human RBC: 50 μM of EA4, 20 min, then 2 μM A23187, 37 °C. It is filed as cell-based. The protocol: (§1) Human venous blood was collected in heparin (40 unit/ml) from some healthy volunteers among the Korean graduate students in our laboratory and bovine blood freshly collected in heparin (40 unit/ml) in a local slaughterhouse. After blood was centrifuged at 500×g for 20 min, the resulting supernatants of the platelet-rich plasma, the buffy coat and the leading edge of the packed RBCs were completely removed by aspiration. Sedimented RBCs, leukocytes, and platelets were re-suspended in a sterile buffer (50 mM Tris-HCl, pH 7.5, 1 mM EDTA, 0.12 M NaCl). This centrifugation and aspiration cycle was repeated six times taking care of removing leukocytes and platelets and the top 10% of the RBCs suspensions. Washed cell suspensions (10 ml) were subsequently depleted of residual leukocytes and platelets by filtration through a Sepharose 4B-200 column (20×2.5 cm) pre-equilibrated with sterile saline (0.9% w/v NaCl) as described above.
(§2) The Sepharose 4B-200 column-purified RBCs suspensions (approximately 1×10^9 cells/ml) were twice washed with serum-free MEM containing 1 mg/ml of fatty acid-free bovine serum albumin (BSA) and labeled for 1 hr with 1.5 mCi [^3H]AA (1 mCi/0.1 ml ethanol)/ml of the same medium. Murine L929 cells (1-2×10^6 cells/ml) were labeled for 6 hrs with 1.5 mCi [^3H]AA (1 mCi/0.1 ml ethanol)/ml of the same medium. Thereafter, cells were washed three times to remove all unincorporated [^3H]AA. […]
(§3) For analysis of [^3H] AA release, at each time of 0, 10, 30, 60 and 90 min after reaction between the cell and A23187, the RBCs were centrifuged as above, and each aliquot (200 μl) of the supernatants for the RBCs and each aliquot (100 μl ) of the conditioned media for the L929 cells was transferred to 2.5 ml of the scintillation counting solution and counted for radioactivity with a Packard Tri-carb liquid β-scintillation counter (Packard Instrument Co., Meriden, Conn.). […]
(§4) Cells were collected and centrifuged at the interval of 10 min. And the radioactivity was measured by scintillation counter.

In the next experiment the test system is bovine RBCs. Nature of the experiment: [3H]AA release from labeled bovine RBCs. Type of experiment: cell-based. Particulars: for inhibition of AA release by A23187 in bovine RBC: 50 μM of EA4, 20 min, then 2 μM A23187, 37 °C. The procedure:
as §1, §2, §3, §4

The next experiment has as its system L929 cells. The experiment is described as follows: [3H]AA release from labeled L929 cells. Type of experiment: cell-based, murine. The conditions noted are these: 50 μM of EA4, 20 min, then 2 μM A23187, 37 °C. The protocol: The Sepharose 4B-200 column-purified RBCs suspensions (approximately 1×10^9 cells/ml) were twice washed with serum-free MEM containing 1 mg/ml of fatty acid-free bovine serum albumin (BSA) and labeled for 1 hr with 1.5 mCi [^3H]AA (1 mCi/0.1 ml ethanol)/ml of the same medium. Murine L929 cells (1-2×10^6 cells/ml) were labeled for 6 hrs with 1.5 mCi [^3H]AA (1 mCi/0.1 ml ethanol)/ml of the same medium. Thereafter, cells were washed three times to remove all unincorporated [^3H]AA. The labeled cells were incubated in MEM containing 1 mg/ml BSA as a trap for the released [^3H]AA and then stimulated with vehicle (0.1 μl ethanol/ml medium) or 2 μM of calcium ionophore A23187 at 37° C. And a control group is treated with vehicle only without A23187 compound.
as §3, §4

The test system of another experiment is cPLA2. Nature of the experiment: cPLA2 enzyme activity assay with inhibitors (comparative group). Type of experiment: biochemical, porcine. The conditions noted are these: substrate 2-[1-14C]AA-PC, 10 min, 37° C. From the text:
Stearoyl-2-[1-^14C]arachidonyl-sn-glycerol-3-phosphocholine (2-[1-^14C]AA-GPC) (55.3 mCi/mmol), 1-palmitoyl-2-[1-^14C]palmitoyl-sn-glycerol-3-phosphocholine (2-[1-^14C]PA-GPC) (55.6 mCi/mmol), 1-palmitoyl-2-[1-^14C]linoleoyl-sn-glycerol-3-phosphocholine (2-[1-^14C]LA-GPC) (55.9 mCi/mmol), 1-acyl-2-[1-^14C]arachidonyl-sn-glycerol-3-phosphoethanolamine (2-[1-^14C]AA-GPE) (55.1 mCi/mmol) and [^3H]arachidonic acid (AA) (204 Ci/mmol) ([^3H]AA) were purchased from the radio-chemical center, Amersham Life Science Ltd. (Buckinghamshire, UK). 1-Stearoyl-2-arachidonyl-sn-glycerol-3-phosphocholine (2-AA-GPC), dithiothreitol (DTT), A23187, 3,3′-diaminobenzidine (DAB), methylcellulose, erythropoietin and Sepharose 4B-200 gel filtration column were purchased from Sigma Co. (St. Louis, Mo.). Anti-human secretory 14 kDa sPLA2 antibody was purchased from Upstate Biotechnology, Inc. (Lake Placid, N.Y.). Goat anti-rabbit- and anti-mouse-alkaline phosphatase conjugates were purchased from Santa Cruz Biotechnology Inc., Santa Cruz, Calif. Group IV cytosolic PLA2 (cPLA2) was purified from porcine spleen and anti-cPLA2 polyclonal antibody was generated as described above(Kim, D. K., and Bonventure, J. V., Biochem. J., 294, 261-270, 1993). Group II secretory PLA2 (sPLA2) was partially purified from bovine platelets as described above (Hara, S et al., J. biochem., 105, 395-399, 1989). […]

Where [1] appears, read: 2 μM A23187, 37° C., 0-90 min, time-dependent.

As for `[Zn+2]` [Zn^2+], the “activation of rPLA2 activity by divalent metal cation” value (shortened to “activation of rPLA2 activity”) in the experiment on rPLA2 is reported as “activated”.
The same measure, in the same setting: the same measure for `[Mg+2]` [Mg^2+]: “activated”; for `[Mn+2]` [Mn^2+]: “activated”.
As to `CNc1ccc2oc(C[C@H]3O[C@@]4(CC[C@H]3C)O[C@H]([C@H](C)C(=O)c3ccc[nH]3)[C@H](C)C[C@H]4C)nc2c1C(=O)O` [A23187, reference compound], the “release of [3H]AA from human RBCs” value in the experiment on human RBCs (setting [1]) is given as “released”. Further, the “release of [3H]AA from bovine RBCs” value in the experiment with bovine RBCs (setting [1]) is reported as “released”.
Consider `[Sr+2]` [Sr^2+], for which, in the experiment with rPLA2, the “activation of rPLA2 activity” value was “activated”.
In the case of `CC(C)(C)c1cc(C2=C(Cl)C(=O)c3ccccc3C2=O)cc(C(C)(C)C)c1O` [TP1, 2-(3,5-Di-tert-butyl-4-hydroxyphenyl)-3-chloro-1,4-naphthalene dione, reference compound], the “inhibition of AA release in L929 cells” value with L929 cells is recorded as “inhibited”. The “inhibition of rPLA2 activity” value in the experiment with rPLA2 is given as “inhibited that of cPLA2 only; also recorded: not inhibited”. Further, in the experiment on cPLA2, the “inhibition of cPLA2 activity” value is reported as “inhibited”. Besides, in the experiment on human RBCs, the “inhibition of AA release by A23187 in human RBC” value was “not inhibited”. The “inhibition of AA release by A23187 in bovine RBC” value in the experiment with bovine RBCs was “not inhibited”.
In the case of `CCN(CC)c1ccc(C2=C(Cl)C(=O)c3ncccc3C2=O)cc1` [EA4, 7-chloro-6-[4-(diethylamine)phenyl]-5,8-quinolinedione], the “inhibition of AA release in L929 cells” value in the experiment with L929 cells is reported as “inhibited”. Besides, the “inhibitory pattern on rPLA2” value in the experiment with rPLA2 (Dixon plot) is “competitive; also recorded: competitively”. Moreover, the inhibition constant Ki on rPLA2 (Dixon plot, competitive inhibition, read-out: inhibition constant (Ki) for rPLA2) was determined as 130 µM. Also, in the experiment on rPLA2, the “inhibition of rPLA2 activity” value was “inhibited”. In the experiment with cPLA2, the “inhibition of cPLA2 activity” value was “inhibited; also recorded: inhibits the activity of cPLA2”. The “inhibition of AA release by A23187 in human RBC” value with human RBCs is “significantly inhibited”. Besides, in the experiment on bovine RBCs, the “inhibition of AA release by A23187 in bovine RBC” value was “significantly inhibited; also recorded: inhibits the release”.
As for `[Cl][Hg][Cl]` [mercuric chloride, reference compound], in the experiment with rPLA2, the “effect on rPLA2 activity compared with cPLA2” value is recorded as “different profile from cPLA2” and the “inhibition of rPLA2 activity” value was “not inhibited”.
Take `CCN(CC)CCCC(C)Nc1c2ccc(Cl)cc2nc2ccc(OC)cc12` (stereo not drawn) [mepacrine, reference compound]: in the experiment on rPLA2, the “inhibition of rPLA2 activity” value was “not inhibited”.
Still for that read-out and setting: with `O[C@H](CS)[C@H](O)CS` (racemic) [DTT, dithiothreitol, reference compound] the entry was “not inhibited”.
`[Ba+2]` [Ba^2+]: in the experiment with rPLA2, the “activation of rPLA2 activity” value is reported as “activated”.
Take `[Fe+2]` [Fe^2+]: the “activation of rPLA2 activity” value in the experiment on rPLA2 was “activated”.
For the molecule `[CH3][Hg][Cl]` [methyl mercury, reference compound], in the experiment with rPLA2, the “effect on rPLA2 activity compared with cPLA2” value is reported as “less effective activity than cPLA2” and the “inhibition of rPLA2 activity” value is given as “not inhibited”.
For the molecule `[Cu+2]` [Cu^2+], the “activation of rPLA2 activity” value with rPLA2 is on record as “activated”.

Source of the values: US20040001834A1, “Phospholipase A2 enzyme, antibodies and inhibitors thereto” (priority 2002, published 2004).
